Results taken from PubChem BioAssay (NCI).
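Results reflect a 48-hour exposure of cells in 96-well plates to compound at five concentrations. TGI: concentration producing complete growth inhibition.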

Columns and labels:
Test in all cases: DTP human tumour cell line panel, 48 h
HS 578T breast = system: HS 578T breast
HOP-62 NSCLC = system: HOP-62 NSCLC
RXF 393 renal = system: RXF 393 renal
LOX IMVI melanoma = system: LOX IMVI melanoma
PC-3 prostate = system: PC-3 prostate
IGROV1 ovarian = system: IGROV1 ovarian
K-562 leukemia = system: K-562 leukemia
CCRF-CEM leukemia = system: CCRF-CEM leukemia
SK-OV-3 ovarian = system: SK-OV-3 ovarian
TK-10 renal = system: TK-10 renal
U251 CNS = system: U251 CNS
UO-31 renal = system: UO-31 renal
SN12C renal = system: SN12C renal
SK-MEL-5 melanoma = system: SK-MEL-5 melanoma
HL-60(TB) leukemia = system: HL-60(TB) leukemia
UACC-257 melanoma = system: UACC-257 melanoma
UACC-62 melanoma = system: UACC-62 melanoma
SNB-19 CNS = system: SNB-19 CNS
OVCAR-8 ovarian = system: OVCAR-8 ovarian
SW-620 colon = system: SW-620 colon
MDA-MB-435 = system: MDA-MB-435
NCI-H23 lung = system: NCI-H23 lung
MCF7 breast = system: MCF7 breast
SNB-75 CNS = system: SNB-75 CNS
A549 NSCLC = system: A549 NSCLC
786-0 renal = system: 786-0 renal
HCT-15 colon = system: HCT-15 colon
OVCAR-4 ovarian = system: OVCAR-4 ovarian
A498 renal = system: A498 renal
SF-539 CNS = system: SF-539 CNS
M14 melanoma = system: M14 melanoma
MDA-N = system: MDA-N
DU-145 prostate = system: DU-145 prostate
SR leukemia = system: SR leukemia
CAKI-1 renal = system: CAKI-1 renal
RPMI-8226 leukemia = system: RPMI-8226 leukemia
HCT-116 colon = system: HCT-116 colon
NCI-H226 lung = system: NCI-H226 lung
MDA-MB-231 breast = system: MDA-MB-231 breast
BT-549 breast = system: BT-549 breast
HCC-2998 colon = system: HCC-2998 colon
HOP-92 NSCLC = system: HOP-92 NSCLC
EKVX NSCLC = system: EKVX NSCLC
NCI-H460 lung = system: NCI-H460 lung
OVCAR-5 ovarian = system: OVCAR-5 ovarian
ACHN renal = system: ACHN renal
NCI/ADR-RES ovarian = system: NCI/ADR-RES ovarian
T-47D breast = system: T-47D breast
SF-268 CNS = system: SF-268 CNS
NCI-H522 lung = system: NCI-H522 lung
SF-295 CNS = system: SF-295 CNS
SK-MEL-28 melanoma = system: SK-MEL-28 melanoma
HT29 colon = system: HT29 colon
OVCAR-3 ovarian = system: OVCAR-3 ovarian
SK-MEL-2 melanoma = system: SK-MEL-2 melanoma
KM12 colon = system: KM12 colon
COLO 205 colon = system: COLO 205 colon
MOLT-4 leukemia = system: MOLT-4 leukemia

## N#[N+]c1c([O-])c2ccccc2c2ccccc12
HS 578T breast
  TGI: > 100 µM
HOP-62 NSCLC
  TGI: > 100 µM
RXF 393 renal
  TGI: 45 µM
LOX IMVI melanoma
  TGI: 86 µM
PC-3 prostate
  TGI: > 100 µM
IGROV1 ovarian
  TGI: > 100 µM
K-562 leukemia
  TGI: > 100 µM
CCRF-CEM leukemia
  TGI: > 100 µM
SK-OV-3 ovarian
  TGI: > 100 µM
TK-10 renal
  TGI: > 100 µM
U251 CNS
  TGI: > 100 µM
UO-31 renal
  TGI: > 100 µM
SN12C renal
  TGI: > 100 µM
SK-MEL-5 melanoma
  TGI: 35.4 µM
HL-60(TB) leukemia
  TGI: > 100 µM
UACC-257 melanoma
  TGI: > 100 µM
UACC-62 melanoma
  TGI: 69.7 µM
SNB-19 CNS
  TGI: > 100 µM
OVCAR-8 ovarian
  TGI: > 100 µM
SW-620 colon
  TGI: > 100 µM
MDA-MB-435
  TGI: > 100 µM
NCI-H23 lung
  TGI: > 100 µM
MCF7 breast
  TGI: > 100 µM
SNB-75 CNS
  TGI: 82.9 µM
A549 NSCLC
  TGI: > 100 µM
786-0 renal
  TGI: > 100 µM
HCT-15 colon
  TGI: > 100 µM
OVCAR-4 ovarian
  TGI: > 100 µM
A498 renal
  TGI: 46.9 µM
SF-539 CNS
  TGI: 91 µM
M14 melanoma
  TGI: > 100 µM
MDA-N
  TGI: > 100 µM
DU-145 prostate
  TGI: > 100 µM
SR leukemia
  TGI: > 100 µM
CAKI-1 renal
  TGI: > 100 µM
RPMI-8226 leukemia
  TGI: > 100 µM
HCT-116 colon
  TGI: > 100 µM
NCI-H226 lung
  TGI: 89.3 µM
MDA-MB-231 breast
  TGI: > 100 µM
BT-549 breast
  TGI: > 100 µM
HCC-2998 colon
  TGI: > 100 µM
HOP-92 NSCLC
  TGI: > 100 µM
EKVX NSCLC
  TGI: 72.8 µM
NCI-H460 lung
  TGI: > 100 µM
OVCAR-5 ovarian
  TGI: > 100 µM
ACHN renal
  TGI: > 100 µM
NCI/ADR-RES ovarian
  TGI: > 100 µM
T-47D breast
  TGI: > 100 µM
SF-268 CNS
  TGI: > 100 µM
NCI-H522 lung
  TGI: 85 µM
SF-295 CNS
  TGI: > 100 µM
SK-MEL-28 melanoma
  TGI: > 100 µM
HT29 colon
  TGI: > 100 µM
OVCAR-3 ovarian
  TGI: > 100 µM
SK-MEL-2 melanoma
  TGI: 93.4 µM
KM12 colon
  TGI: > 100 µM
COLO 205 colon
  TGI: > 100 µM
MOLT-4 leukemia
  TGI: > 100 µM
